From patent US20250114387A1, “PHARMACEUTICAL COMPOSITION COMPRISING ENAVOGLIFLOZIN FOR PREVENTING OR TREATING OBESITY IN CANINE ANIMALS” (DAEWOONG PHARMACEUTICAL CO., LTD., priority 2022, published 2025)

Tests used:
[1] = Non-clinical toxicity test: 39 weeks repeated oral administration, changes in body weight; assay type: in vivo, beagles
[2] = system: obese dogs; test: Clinical trial in obese dogs: serum biochemical parameters; assay type: in vivo; conditions: for ALB / ALP / ALT / AST / BUN / CPK / CRE / GGT / Glu / TC / TP / TG: serum
Description: A total of 20 dogs were selected and divided into 4 groups with 5 dogs in each group: a normal obese control (OC); hereinafter, referred to as a control (OC)), an enavogliflozin 0.2-administered group, an enavogliflozin 0.5-administered group, and an enavogliflozin 1-administered group. The control was fed regular feed, and the enavogliflozin-administered groups were fed regular feed supplemented with enavogliflozin at doses of 0.2, 0.5, or 1 mg/kg, respectively. The feed was supplemented with enavogliflozin once a day for 8 weeks and given orally.
Biological analysis was performed as follows. A portion of the blood collected on the day of the test was transferred to a vacuum tube containing a coagulation activator, left at room temperature for 15 to 20 minutes to solidify, and then centrifuged at 3000 rpm, thereby obtaining serum. Serum biochemical parameters were evaluated using a Hitachi 7180 device (Hitachi, Tokyo, Japan). The evaluated biochemical parameters are aspartate aminotransferase (AST), alanine aminotransferase (ALT), alkaline phosphatase (ALP), creatine phosphokinase (CPK), total bilirubin (TBIL), glucose (GLU), total cholesterol (TC), triglycerides (TG), total protein (TP), albumin (ALB), gamma-glutamyl transpeptidase (GGT), blood urea nitrogen (BUN), creatinine (CRE), inorganic phosphorus (IP), calcium (Ca), and C-reactive protein (CRP).

[3] = obese dogs, 0.2 mg/kg once a day oral for 8 weeks
[4] = obese dogs, 0.5 mg/kg once a day oral for 8 weeks
[5] = obese dogs, 1 mg/kg once a day oral for 8 weeks

ALB [2, 3]: 3.48 ± 0.42 g/dL
TP [2, 3]: 6.78 ± 0.66 g/dL
ALB [2, 4]: 2.95 ± 0.19 g/dL
TP [2, 4]: 6.43 ± 0.32 g/dL
ALB [2, 5]: 2.92 ± 0.29 g/dL
TP [2, 5]: 6.14 ± 0.54 g/dL
Compound: OC[C@H]1O[C@@H](c2cc(Cc3ccc(C4CC4)cc3)c(Cl)c3c2CCO3)[C@H](O)[C@@H](O)[C@@H]1O [Enavogliflozin, enavogliflozin]
body weight decrease ([1]; normal female beagles, 1 mg/kg/day oral): 7.6%
body weight decrease ([1]; normal female beagles, 3 mg/kg/day oral): 11.8%
body weight decrease ([1]; normal female beagles, 6 mg/kg/day oral): 11.3%
body weight decrease ([1]; normal male beagles, 1 mg/kg/day oral): 9.1%
body weight decrease ([1]; normal male beagles, 3 mg/kg/day oral): 12.7%
body weight decrease ([1]; normal male beagles, 6 mg/kg/day oral): 21.0%
C-reactive protein (CRP) compared to the control (OC) ([2]; obese dogs, 0.2 mg/kg): significantly decreased
alanine aminotransferase (ALT) compared to the control (OC) ([2]; obese dogs, 0.2 mg/kg): significantly decreased
alkaline phosphatase (ALP) compared to the control (OC) ([2]; obese dogs, 0.2 mg/kg): significantly decreased
creatine phosphokinase (CPK) compared to the control (OC) ([2]; obese dogs, 0.2 mg/kg): significantly decreased
serum gamma-glutamyl transpeptidase (GGT) compared to the control (OC) ([2]; obese dogs, 0.2 mg/kg): significantly decreased
serum total cholesterol (TC) compared to the control (OC) ([2]; obese dogs, 0.2 mg/kg): lower than those of the control (OC)
triglyceride (TG) concentration compared to the control (OC) ([2]; obese dogs, 0.2 mg/kg): lower than those of the control (OC)
glucose (GLU) concentration compared to the control (OC) ([2]; obese dogs, 1 mg/kg): significantly lower
serum triglyceride (TG) concentrations compared to the control ([2]; obese dogs, 0.2, 0.5 and 1 mg/kg groups): significantly lower than that of the control
fasting glucose compared to the control (OC) ([2]; obese dogs, all administration groups): decreased compared to the control (OC)
ALP [2, 3]: 84.60 ± 63.96 IU/L
ALT [2, 3]: 18.84 ± 4.00 IU/L
AST [2, 3]: 31.00 ± 1.83 IU/L
BUN [2, 3]: 18.70 ± 10.29 mg/dL
CPK [2, 3]: 111.12 ± 30.97 IU/L
CRE [2, 3]: 0.78 ± 0.21 mg/dL
GGT [2, 3]: 7.80 ± 1.64 IU/L
Glu [2, 3]: 107.20 ± 10.85 mg/dL
TC [2, 3]: 183.84 ± 36.01 mg/dL
TG ([2]; obese dogs, 0.2 mg/kg once a day oral for 8 weeks, 0.2 mg/kg): 142.00 ± 95.55 mg/dL
TG ([2]; obese dogs, 0.2 mg/kg once a day oral for 8 weeks, listed as enavogliflozin, 0.2 mg/kg): 142.00 ± 95.55 mg/dL
ALP [2, 4]: 146.20 ± 121.67 IU/L
ALT [2, 4]: 36.80 ± 14.43 IU/L
AST [2, 4]: 31.84 ± 12.92 IU/L
BUN [2, 4]: 22.25 ± 8.64 mg/dL
CPK [2, 4]: 136.50 ± 42.99 IU/L
CRE [2, 4]: 0.82 ± 0.15 mg/dL
GGT [2, 4]: 9.46 ± 5.37 IU/L
Glu [2, 4]: 97.77 ± 10.19 mg/dL
TC [2, 4]: 298.00 ± 71.14 mg/dL
TG ([2]; obese dogs, 0.5 mg/kg once a day oral for 8 weeks, 0.5 mg/kg): 133.86 ± 70.19 mg/dL
TG ([2]; obese dogs, 0.5 mg/kg once a day oral for 8 weeks, listed as enavogliflozin, 0.5 mg/kg): 133.86 ± 70.19 mg/dL
ALP [2, 5]: 186.20 ± 184.59 IU/L
ALT [2, 5]: 38.60 ± 19.72 IU/L
AST [2, 5]: 110.00 ± 167.92 IU/L
BUN [2, 5]: 23.44 ± 13.17 mg/dL
CPK [2, 5]: 260.40 ± 126.79 IU/L
CRE [2, 5]: 0.92 ± 0.36 mg/dL
GGT [2, 5]: 21.60 ± 29.36 IU/L
Glu [2, 5]: 94.00 ± 13.47 mg/dL
TC [2, 5]: 309.00 ± 129.40 mg/dL
TG ([2]; obese dogs, 1 mg/kg once a day oral for 8 weeks, 1 mg/kg): 282.60 ± 419.03 mg/dL
TG ([2]; obese dogs, 1 mg/kg once a day oral for 8 weeks, listed as enavogliflozin, 1 mg/kg): 282.60 ± 419.03 mg/dL
